In assay [1] the test system is experimental allergic encephalomyelitis (EAE) model. As to the kind of experiment: Experimental allergic encephalomyelitis (EAE) model, EAE scores. The class given is in vivo, Male C57BL/6 mice. The conditions noted are these: MOG peptide-immunized mice; oral, 30 mg/kg in 0.5% MC, 10 ml/kg/administration, twice a day from post-immunization day 7; FIG. 1 and 2.
For assay [2], the target named is T1, Porcine kidney-derived DPP-IV (Sus scrofa, UniProt P22411).
T1 construct: Porcine kidney-derived DPP-IV was dissolved in a reaction buffer; from tissue; host or cells: porcine kidney
T1 sequence (P22411 whole entry): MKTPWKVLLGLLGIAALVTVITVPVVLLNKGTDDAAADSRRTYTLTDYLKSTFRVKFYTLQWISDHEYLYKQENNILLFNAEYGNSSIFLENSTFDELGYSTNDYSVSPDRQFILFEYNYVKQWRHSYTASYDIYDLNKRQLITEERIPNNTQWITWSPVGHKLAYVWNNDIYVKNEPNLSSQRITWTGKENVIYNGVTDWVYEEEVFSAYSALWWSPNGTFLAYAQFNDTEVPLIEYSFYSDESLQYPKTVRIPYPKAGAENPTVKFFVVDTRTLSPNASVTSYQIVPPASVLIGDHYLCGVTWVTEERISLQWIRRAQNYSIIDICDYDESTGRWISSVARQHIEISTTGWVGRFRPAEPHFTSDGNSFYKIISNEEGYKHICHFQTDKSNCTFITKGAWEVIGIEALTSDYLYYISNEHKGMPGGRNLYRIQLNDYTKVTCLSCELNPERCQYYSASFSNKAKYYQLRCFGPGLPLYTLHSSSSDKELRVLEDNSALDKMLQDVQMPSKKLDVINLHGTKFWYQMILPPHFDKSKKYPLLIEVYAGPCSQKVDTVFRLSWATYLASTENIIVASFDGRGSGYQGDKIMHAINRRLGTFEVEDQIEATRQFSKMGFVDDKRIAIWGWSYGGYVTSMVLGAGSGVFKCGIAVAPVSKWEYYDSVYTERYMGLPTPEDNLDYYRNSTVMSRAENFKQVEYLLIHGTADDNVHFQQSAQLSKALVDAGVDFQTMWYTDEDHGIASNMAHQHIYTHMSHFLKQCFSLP
The assay is described as follows: DPPIV-inhibiting activity assay. The class given is biochemical. Particulars: porcine kidney DPP-IV 10 mU/ml, Gly-Pro-p-nitroanilide 0.33 mM, 20 minutes, absorbance at 405 nm. How it is done:
DPPIV-Inhibiting Activity Assay
Porcine kidney-derived DPP-IV was dissolved in a reaction buffer (50 mM Tris-HCl (pH 7.4)/0.1% BSA) at a concentration of 10 mU/ml. After 110 μl of this solution had been combined with 15 μl of an agent, the mixture was incubated at room temperature for 20 minutes. 25 μl of 2 mM Gly-Pro-p-nitroanilide was added (to a final concentration of 0.33 mM) to the solution to initiate the enzyme reaction. The reaction time was 20 minutes. 25 μl of IN phosphoric acid solution was added to the reaction solution to quench the reaction.

Regarding `CC#CCn1c(N2CCNCC2)nc2c1c(=O)n(C)c(=O)n2C` [Compound 1X, 7-(2-butynyl)-1,3-dimethyl-8-(piperazin-1-yl)-3,7-dihydropurine-2,6-dione], the “effect on development of EAE symptoms compared to control group (MC solution)” value in assay [1] is listed as “definite suppressing effects”.
Still for that read-out and setting: the result for `CC#CCn1c(N2CCCC(N)C2)nc2cnn(C)c(=O)c21.O=C(O)C(F)(F)F` (stereo not shown) [Example 120, 2-(3-Aminopiperidin-1-yl)-3-(2-butynyl)-5-methyl-3,5-dihydroimidazo[4,5-d]pyridazin-4-one trifluoroacetate] reads “definite suppressing effects”; that for `CC#CCn1c(N2CCNCC2)nc2nc(Oc3ccccc3C(N)=O)n(C)c(=O)c21` [Example 122, 2-[7-(2-Butynyl)-1-methyl-6-oxo-8-(piperazin-1-yl)-6,7-dihydro-1H-purin-2-yloxy]benzamide], “definite suppressing effects”.
In the case of “Methyl 2-[7-(2-butynyl)-1-methyl-6-oxo-8-(piperazin-1-yl)-6,7-dihydro-1H-purin-2-yloxy]phenylacetate trifluoroacetate [Example 4]”, the IC50 in assay [2] came out at 211 nM.

Usually IC50 stands for the concentration that inhibits the measured activity by half. Read a high IC50 as weaker potency in that assay.

Values taken from patent US20070219178A1, “PREVENTIVE OR THERAPEUTIC AGENTS FOR MULTIPLE SCLEROSIS” (Eisai Co., Ltd., priority 2003, published 2007).
